Measured values as given in US20240334931A1, “NEMATICIDAL COMPOSITION” (ISHIHARA SANGYO KAISHA, LTD., priority 2021, published 2024).

Legend:
Type in all cases: in vivo
[1] = tested on: soybean cyst nematode (Heterodera glycines); assay: Test on effects against soybean cyst nematode: treated contaminated soil, soybean pot test (Test Example 3); design: key: 0: No parasitic cyst observed on the roots at all; 1: Parasitic cyst observed to a slight degree; 2: Parasitic cyst observed to a moderate degree; 3: Parasitic cyst observed to a heavy degree; 4: Parasitic cyst observed densely on the entire roots; conditions: 10 ml poured to 200 ml contaminated soil, about one month after sowing
Description: . The treated soil was put into a pot, three soybean seeds were sown, and the pot was placed in a greenhouse. About one month after the sowing of the soybean seeds, the parasite index was determined based on the cyst parasite level on the roots shown in Table 7.

[2] = tested on: southern root-knot nematode (Meloidogyne incognita); assay: Test on effects against southern root-knot nematode: treated contaminated soil, cucumber pot test (Test Example 1 and Comparative Test); design: key: 0: No knot formed on the root at all; 1: Knots formed to a slight degree; 2: Knots formed to a moderate degree; 3: Knots formed to a heavy degree; 4: Knots formed to the heaviest degree
Description: The treated soil was put into a pot, three cucumber seeds were sown, and the pot was placed in a greenhouse. Two to three weeks after the sowing of the cucumber seeds, the root knot index was determined based on the degree of formation of root knots shown in Table 5. Each composition containing Compound No. […]-192 or B-196 at a concentration of 400 ppm and the composition containing Compound No. […] [table] […] Root knot index of 2 corresponds to a state where the proportion of healthy roots is 50% or less to the entire roots, and indicates control effects to such an extent that cucumber as a crop plant to be tested cannot healthily grow.

[3] = tested on: Cobb root-lesion nematode (Pratylenchus penetrans); assay: Test on effects against Cobb root-lesion nematode: treated contaminated soil, burdock pot test (Test Example 2); design: key: 0: No injury; 1: Slight injury; 2: Moderate injury; 3: Heavy injury; 4: Heaviest injury; conditions: 800 ppm, 10 ml poured to 200 ml contaminated soil, about one month after sowing
Description: . The treated soil was put into a pot, three burdock seeds were sown, and the pot was placed in a greenhouse. About one month after the sowing of the burdock seeds, the injury index was determined based on the root injury level shown in Table 6.

[4] = 400 ppm, 10 ml poured to 200 ml contaminated soil, cucumber, two to three weeks after sowing
[5] = Comparative Test, active ingredient concentration 50 ppm, otherwise as Test Example 1 (cucumber)

SMILES	parasite index ([1]; 400 ppm)	root knot index [2, 4]	injury index [3]	parasite index ([1]; 800 ppm)	root knot index [2, 5]	root knot index ([2]; […], cucumber, two to three weeks after sowing)
O=CNN=C(c1ccc(F)cc1)C1(n2cnc(C(F)(F)F)n2)CC1 (single isomer, unassigned) [B-106]	1	1				
CC(C)(C(=NNC=O)c1ccccc1)n1ccc(C(F)(F)F)n1 [A-1, N′-(2-methyl-1-phenyl-2-(3-trifluoromethyl-1H-pyrazol-1-yl)propylidene) formhydrazide]		1	1	1	1	
CC(C)(C(=NNC=O)c1ccccc1)n1cnc(C(F)(F)F)n1 [A-2]		1		1	0	
CC(C)(C(=NNC=O)c1ccc(Cl)cc1)n1ccc(C(F)(F)F)n1 [A-89]		1		1		
CC(C)(C(=NNC=O)c1ccc(F)cc1)n1ccc(C(F)(F)F)n1 [A-107]		1		1		
CC(C)(C(=NNC=O)c1ccccc1C(F)(F)F)n1ccc(C(F)(F)F)n1 [A-260]	1	1				
CC(C)(C(=NNC=O)c1ccccc1OC(F)(F)F)n1cnc(C(F)(F)F)n1 [A-271]		1		1		
CC(C)(C(=NNC=O)c1cccc(F)c1)n1ccc(C(F)(F)F)n1 [A-274]		1		1		
CC(C)(C(=NNC=O)c1cccc(F)c1)n1ccc(Br)n1 [A-279]		1		1		
CC(C)(C(=NNC=O)c1cccc(Cl)c1)n1ccc(C(F)(F)F)n1 [A-318]		1	1	1	1	
CC(C)(C(=NNC=O)c1cccc(Cl)c1)n1cnc(C(F)(F)F)n1 [A-319]		1		1		
Cc1cccc(C(=NNC=O)C(C)(C)n2ccc(C(F)(F)F)n2)c1 [A-322]		1		1		
Cc1cccc(C(=NNC=O)C(C)(C)n2cnc(C(F)(F)F)n2)c1 [A-323, N′-(2-methyl-1-(3-methylphenyl)-2-(3-trifluoromethyl-1H-triazol-1-yl)propylidene) formhydrazide]				1		1
COc1cccc(C(=NNC=O)C(C)(C)n2ccc(C(F)(F)F)n2)c1 [A-328]		1		1		
CC(C)(C(=NNC=O)c1cccc(Cl)c1Cl)n1cnc(C(F)(F)F)n1 [A-333]		1		1		
CC(C)(C(=NNC=O)c1cc(F)ccc1Cl)n1cnc(C(F)(F)F)n1 [A-352]		1		1		
CC(C)(C(=NNC=O)c1cccc2c1OC(F)(F)O2)n1cnc(C(F)(F)F)n1 [A-411]		1		1		
CC(C)(C(=NNC=O)c1cccc2c1OC(F)(F)O2)n1ccc(C#N)n1 [A-416]		1		1		
O=CNN=C(c1ccccc1)C1(n2ccc(C(F)(F)F)n2)CC1 [B-1, N′-(phenyl(1-(3-trifluoromethyl-1H-pyrazol-1-yl)cyclopropyl)methylene) formhydrazide]		1	1	1		
Cc1ccccc1C(=NNC=O)C1(n2ccc(C(F)(F)F)n2)CC1 [B-196]		1		1		
